For orientation: IC50 means the concentration that inhibits the measured activity by half.

IDH1 R132H enzyme, sequence (O75874 whole entry R132H): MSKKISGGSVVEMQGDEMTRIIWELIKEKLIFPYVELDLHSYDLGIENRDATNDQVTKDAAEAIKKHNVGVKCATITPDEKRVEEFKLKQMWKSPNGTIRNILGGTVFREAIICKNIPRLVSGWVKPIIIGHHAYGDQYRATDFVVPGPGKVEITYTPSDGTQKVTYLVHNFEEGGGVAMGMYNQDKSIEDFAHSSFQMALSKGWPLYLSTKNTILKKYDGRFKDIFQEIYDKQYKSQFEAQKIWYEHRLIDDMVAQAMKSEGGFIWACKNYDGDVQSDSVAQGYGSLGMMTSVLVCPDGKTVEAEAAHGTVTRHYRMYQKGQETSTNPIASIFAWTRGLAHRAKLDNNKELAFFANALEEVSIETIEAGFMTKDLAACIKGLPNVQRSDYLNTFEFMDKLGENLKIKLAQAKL

The target in this assay is IDH1 R132H enzyme (Homo sapiens (Human), UniProt O75874, R132H). Put plainly: Mutant IDH1 R132H biochemical assay. The note with it: luminescent NADPH consumption readout; 1.5 nM enzyme, 1 μM NADPH, 250 μM α-KG, 30 min, 32° C. As for the experimental part:
Mutant IDH1 R132H Biochemical Assay
mIDH1 catalyzes the NADPH-dependent reduction of alpha-ketoglutarate (α-KG) to (2R)-2-hydroxyglutarate (2-HG). NADPH consumption was measured by luminescent readout.
The biochemical reactions were performed at 32° C. in 384-well plates using a reaction volume of 41 μL and the following assay buffer conditions: 50 mM Tris pH 7.5, 100 mM NaCl, 20 mM MgCl2, 0.05% BSA, 0.01% Brij, 1 μM NADPH, and 250 μM α-KG. The IDH1 R132H enzyme was used in a final concentration of 1.5 nM. Test compounds were used in a concentration range between 0.002 and 10 μM. The final DMSO concentration was 2.4%.
The reaction was incubated for 30 minutes, then 40 μL of detection mix (0.75 μg/ml Luciferase, 0.02 U/ml Oxidoreductase, 4 μg/mL FMN, 2 μL/ml decanal/ethanol, 50 mM Tris pH 7.5, 0.5% Glycerin, 0.01% Tween-20, 0.05% BSA) was added. Luminescence was measured on a luminescent reader (10 seconds measuring time, 1 second integration period, 30% sensitivity). The decrease in luminescence is proportional to mIDH1 activity. IC50 values are determined by interpolation from plots of relative luminescence versus inhibitor concentration.
`CC(C)[C@@H]1CC[C@@H](C)C[C@H]1n1c(Nc2ccc(OC(F)(F)F)cc2)nc2cc(CCC(C)(C)O)ccc21` [Example 2-18, 4-(1-[(1R,2S,5R)-2-isopropyl-5-methylcyclohexyl]-2-{[4-(trifluoro-methoxy)phenyl]amino}-1H-benz-imidazol-5-yl)-2-methylbutan-2-ol] gave a half-inhibitory concentration (IC50) of 100 nM.

Turning to `CC(C)Oc1ccc(Nc2nc3cc(CC(C)(C)O)ccc3n2[C@@H]2C[C@H](C)CC[C@H]2C(C)C)cc1` [Example 2-17, 1-{2-[(4-isopropoxyphenyl)amino]-1-[(1R,2S,5R)-2-isopropyl-5-methylcyclohexyl]-1H-benz-imidazol-5-yl}-2-methylpropan-2-ol], the IC50 worked out at 160 nM.

Consider `Cc1cc2c(cc1CC(C)(C)O)nc(Nc1ccc(OC(F)(F)F)cc1)n2[C@H]1C[C@@H](C)CC(C)(C)C1` (racemic) [Example 2-8, (±) 2-methyl-1-(6-methyl-2-{[4-(trifluoromethoxy)phenyl]amino}-1-[(cis)-3,3,5-trimethylcyclohexyl]-1H-benzimidazol-5-yl)propan-2-ol], for which the IC50 stood at 30 nM.

The molecule `CC(C)c1ccc(Nc2nc3cc(C(C)(C)O)ccc3n2[C@@H]2C[C@H](C)CC[C@H]2C(C)C)cc1` [Example 2-14, 2-{1-[(1R,2S,5R)-2-isopropyl-5-methylcyclohexyl]-2-[(4-isopropyl-phenyl)amino]-1H-benzimidazol-5-yl}propan-2-ol] displayed a half-maximal inhibitory concentration (IC50) of 120 nM.

As for `CC(C)c1ccc(Nc2nc3cc(CCC(C)(C)O)ccc3n2[C@@H]2C[C@H](C)CC[C@H]2C(C)C)cc1` [Example 2-19, 4-{1-[(1R,2S,5R)-2-isopropyl-5-methylcyclohexyl]-2-[(4-isopropyl-phenyl)amino]-1H-benzimidazol-5-yl}-2-methylbutan-2-ol], the IC50 worked out at 290 nM.

`Cc1cc2c(cc1C(C)(C)O)nc(Nc1ccc(OC(F)(F)F)cc1)n2[C@H]1C[C@@H](C)CC(C)(C)C1` (single isomer, unassigned; enantiomer a) [Example 2-3-1, 2-(6-methyl-2-{[4-(trifluoromethoxy)phenyl]amino}-1-[(cis)-3,3,5-trimethylcyclohexyl]-1H-benzimidazol-5-yl)propan-2-ol, enantiomer A] displayed an IC50 of 80 nM.

`COc1cc2c(cc1CCC(C)(C)O)nc(Nc1ccc(OC(F)(F)F)cc1)n2[C@H]1C[C@@H](C)CC(C)(C)C1` (single isomer, unassigned; enantiomer b) [Example 2-12-2, 4-(6-methoxy-2-{[4-(trifluoromethoxy)phenyl]amino}-1-[(cis)-3,3,5-trimethylcyclohexyl]-1H-benzimidazol-5-yl)-2-methylbutan-2-ol, enantiomer B] had a half-maximal inhibitory concentration (IC50) of 10 nM.

In turn, `C[C@@H]1C[C@H](n2c(Nc3ccc(OC(F)(F)F)cc3)nc3cc(CC(C)(C)O)c(F)cc32)CC(C)(C)C1` (single isomer, unassigned; enantiomer a) [Example 2-10-1, 1-(6-fluoro-2-{[4-(trifluoromethoxy)phenyl]amino}-1-[(cis)-3,3,5-trimethylcyclohexyl]-1H-benzimidazol-5-yl)-2-methylpropan-2-ol, enantiomer A] showed an IC50 of 320 nM.

With `COc1cc2c(cc1CC(C)(C)O)nc(Nc1ccc(OC(F)(F)F)cc1)n2[C@H]1C[C@@H](C)CC(C)(C)C1` (single isomer, unassigned; enantiomer a) [Example 2-9-1, 1-(6-methoxy-2-{[4-(trifluoromethoxy)phenyl]amino}-1-[(cis)-3,3,5-trimethylcyclohexyl]-1H-benzimidazol-5-yl)-2-methylpropan-2-ol, enantiomer A], the concentration for half-maximal inhibition (IC50) was determined as 30 nM.

Consider `COc1cc2c(cc1CO)nc(Nc1ccc(OC(F)(F)F)cc1)n2[C@H]1C[C@@H](C)CC(C)(C)C1` (racemic) [Example 2-6, (±) (6-methoxy-2-{[4-(trifluoromethoxy)phenyl]amino}-1-[(cis)-3,3,5-trimethylcyclohexyl]-1H-benzimidazol-5-yl)methanol], for which the 50% inhibitory concentration (IC50) worked out at 20 nM.

In turn, `CC(C)[C@@H]1CC[C@@H](C)C[C@H]1n1c(Nc2ccc(OC(F)(F)F)cc2)nc2cc(C(C)(C)O)ccc21` [Example 2-13, 2-(1-[(1R,2S,5R)-2-isopropyl-5-methylcyclohexyl]-2-{[4-(trifluoromethoxy)phenyl]-amino}-1H-benzimidazol-5-yl)propan-2-ol] displayed a half-inhibitory concentration (IC50) of 80 nM.

For `CC(C)[C@@H]1CC[C@@H](C)C[C@H]1n1c(Nc2ccc(OC(F)(F)F)cc2)nc2cc(CC(C)(C)O)ccc21` [Example 2-15, 1-(1-[(1R,2S,5R)-2-isopropyl-5-methylcyclohexyl]-2-{[4-(trifluoro-methoxy)phenyl]amino}-1H-benz-imidazol-5-yl)-2-methylpropan-2-ol], inhibition was half-maximal at 40 nM (IC50).

Turning to `COc1cc2c(cc1CC(C)(C)O)nc(Nc1ccc(OC(F)(F)F)cc1)n2[C@H]1C[C@@H](C)CC(C)(C)C1` (single isomer, unassigned; enantiomer b) [Example 2-9-2, 1-(6-methoxy-2-{[4-(trifluoromethoxy)phenyl]amino}-1-[(cis)-3,3,5-trimethylcyclohexyl]-1H-benzimidazol-5-yl)-2-methylpropan-2-ol, enantiomer B], half-maximal inhibition (IC50) was put at 10 nM.

In turn, `C[C@@H]1C[C@H](n2c(Nc3ccc(OC(F)(F)F)cc3)nc3cc(CO)ccc32)CC(C)(C)C1` (single isomer, unassigned; enantiomer b) [Example 2-1-2, (2-{[4-(trifluoromethoxy)phenyl]amino}-1-[(cis)-3,3,5-trimethylcyclohexyl]-1H-benzimidazol-5-yl)methanol, enantiomer B] yielded a half-inhibitory concentration (IC50) of 70 nM.

In turn, `Cc1cc2c(cc1C(C)(C)O)nc(Nc1ccc(OC(F)(F)F)cc1)n2[C@H]1C[C@@H](C)CC(C)(C)C1` (single isomer, unassigned; enantiomer b) [Example 2-3-2, 2-(6-methyl-2-{[4-(trifluoromethoxy)phenyl]amino}-1-[(cis)-3,3,5-trimethylcyclohexyl]-1H-benzimidazol-5-yl)propan-2-ol, enantiomer B] showed a concentration for half-maximal inhibition (IC50) of 20 nM.

`Cc1cc2c(cc1CC(C)(C)O)nc(Nc1ccc(OC(F)(F)F)cc1)n2[C@H]1C[C@@H](C)CC(C)(C)C1` (single isomer, unassigned; enantiomer a) [Example 2-8-1, 2-methyl-1-(6-methyl-2-{[4-(trifluoromethoxy)phenyl]amino}-1-[(cis)-3,3,5-trimethylcyclohexyl]-1H-benzimidazol-5-yl)propan-2-ol, enantiomer A]: the IC50 was 120 nM.

As for `COc1cc2c(cc1C(C)(C)O)nc(Nc1ccc(OC(F)(F)F)cc1)n2[C@H]1C[C@@H](C)CC(C)(C)C1` (racemic) [Example 2-7, (±) 2-(6-methoxy-2-{[4-(trifluoromethoxy)phenyl]amino}-1-[(cis)-3,3,5-trimethylcyclohexyl]-1H-benzimidazol-5-yl)propan-2-ol], the midpoint of inhibition, the IC50, lay at 20 nM.

Consider `CC(C)Oc1ccc(Nc2nc3cc(CCC(C)(C)O)ccc3n2[C@@H]2C[C@H](C)CC[C@H]2C(C)C)cc1` [Example 2-20, 4-{2-[(4-isopropoxyphenyl)amino]-1-[(1R,2S,5R)-2-isopropyl-5-methylcyclohexyl]-1H-benzimidazol-5-yl}-2-methylbutan-2-ol], for which half-maximal inhibition (IC50) required 300 nM.
